Assay results as given in the supplement of paper PMC10307832.

What was measured:
Experiment in all cases: relative viability (nuclei count vs DMSO), 5 days (fraction); higher = more cells survive
XMD13-2 + AZD7762 = compound: C1CC1C(=O)NC2=NNC3=C2C=CC(=C3)C4=CC(=CC=C4)C(=O)NC5CC5 [XMD13-2] + NC(=O)Nc1cc(-c2cccc(F)c2)sc1C(=O)N[C@H]1CCCNC1 [AZD7762] (partner 0.2 µM)
In short: (§1)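 After 5 days of treatment, lung cancer cells in 1536-well plates were fixed and stained in a single step (final 0.05% Triton X-100, 1% formaldehyde, 1 ug/ml Hoechst) and their nuclei counted on 4× images. Treatment had been applied by pin tool the day after seeding as one drug alone or as a fixed anchor-drug dose with five library-drug doses (not always all listed) in √10 steps. Relative viability is the nuclei count of treated wells divided by that of vehicle wells, and values are medians of duplicate plates.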

XMD13-2 + Lapatinib = compound: C1CC1C(=O)NC2=NNC3=C2C=CC(=C3)C4=CC(=CC=C4)C(=O)NC5CC5 [XMD13-2] + CS(=O)(=O)CCNCc1ccc(-c2ccc3ncnc(Nc4ccc(OCc5cccc(F)c5)c(Cl)c4)c3c2)o1 [Lapatinib] (partner 2 µM)
In short: as §1

Dasatinib + Navitoclax = compound: Cc1nc(Nc2ncc(C(=O)Nc3c(C)cccc3Cl)s2)cc(N2CCN(CCO)CC2)n1 [Dasatinib] + CC1(C)CCC(c2ccc(Cl)cc2)=C(CN2CCN(c3ccc(C(=O)NS(=O)(=O)c4ccc(N[C@H](CCN5CCOCC5)CSc5ccccc5)c(S(=O)(=O)C(F)(F)F)c4)cc3)CC2)C1 [Navitoclax] (partner 0.5 µM)
In short: as §1

ALW-II-49-7 + Navitoclax = compound: Cc1ccc(C(=O)Nc2cccc(C(F)(F)F)c2)cc1Nc1cncc(C(N)=O)c1 [ALW-II-49-7] + CC1(C)CCC(c2ccc(Cl)cc2)=C(CN2CCN(c3ccc(C(=O)NS(=O)(=O)c4ccc(N[C@H](CCN5CCOCC5)CSc5ccccc5)c(S(=O)(=O)C(F)(F)F)c4)cc3)CC2)C1 [Navitoclax] (partner 0.5 µM)
In short: as §1

Cell Line | relative viability (XMD13-2 + AZD7762; first compound 0.05 µM) | relative viability (XMD13-2 + AZD7762; first compound 0.1581 µM) | relative viability (XMD13-2 + AZD7762; first compound 0.5 µM) | relative viability (XMD13-2 + AZD7762; first compound 1.581 µM) | relative viability (XMD13-2 + AZD7762; first compound 5 µM) | relative viability (XMD13-2 + Lapatinib; first compound 0.05 µM) | relative viability (XMD13-2 + Lapatinib; first compound 0.1581 µM) | relative viability (XMD13-2 + Lapatinib; first compound 0.5 µM) | relative viability (XMD13-2 + Lapatinib; first compound 1.581 µM) | relative viability (XMD13-2 + Lapatinib; first compound 5 µM) | relative viability (Dasatinib + Navitoclax; first compound 0.005 µM) | relative viability (Dasatinib + Navitoclax; first compound 0.01581 µM) | relative viability (Dasatinib + Navitoclax; first compound 0.05 µM) | relative viability (Dasatinib + Navitoclax; first compound 0.1581 µM) | relative viability (Dasatinib + Navitoclax; first compound 0.5 µM) | relative viability (ALW-II-49-7 + Navitoclax; first compound 0.08 µM) | relative viability (ALW-II-49-7 + Navitoclax; first compound 0.253 µM) | relative viability (ALW-II-49-7 + Navitoclax; first compound 0.8 µM) | relative viability (ALW-II-49-7 + Navitoclax; first compound 2.53 µM) | relative viability (ALW-II-49-7 + Navitoclax; first compound 8 µM)
NCI-H650 | 1.22 | 1.02 | 1.14 | 0.847 | 1.43 | 0.993 | 1.06 | 0.94 | 0.752 | 0.829 |  |  |  |  |  |  |  |  |  | 
NCI-H661 |  |  |  |  |  | 0.423 | 0.555 | 0.578 | 0.519 | 0.386 |  |  |  |  |  |  |  |  |  | 
NCI-H1299 |  |  |  |  |  | 0.908 | 1.03 | 0.997 | 0.958 | 0.939 | 1.04 | 1.05 | 1.1 | 0.6 | 0.31 | 1.03 | 1.08 | 1.05 | 1.07 | 0.968
NCI-H1563 |  |  |  |  |  | 1.06 | 0.88 | 0.967 | 0.839 | 1.08 |  |  |  |  |  |  |  |  |  | 
NCI-H1648 | 0.604 |  | 0.564 | 0.633 | 0.565 |  |  |  |  |  |  |  |  |  |  |  |  |  |  | 
NCI-H1650 |  |  |  |  |  | 0.865 | 0.674 | 0.809 | 0.677 | 0.227 | 1.26 | 0.934 | 0.83 | 0.506 | 0.387 | 1.05 | 1.06 | 1.32 | 1.34 | 1.21
NCI-H2009 |  |  |  |  |  | 0.914 | 1.03 | 1.16 | 0.894 | 0.519 | 1.23 | 1.12 | 1.3 | 0.761 | 0.235 | 1.1 | 1.16 | 1.12 | 0.904 | 0.983
NCI-H2023 |  |  |  |  |  | 0.932 | 0.739 | 0.835 | 0.724 | 0.3 | 0.978 | 0.854 | 0.795 | 0.778 | 0.488 | 0.925 | 1.1 | 1.03 | 1.01 | 1.02
NCI-H2228 |  |  |  |  |  | 1.42 | 1.19 | 1.05 | 1.23 | 0.426 | 0.845 | 0.644 | 1.44 | 0.475 | 0.249 | 1.4 | 0.809 | 0.628 | 0.838 | 0.84
NCI-H2342 | 0.494 | 0.566 | 0.516 | 0.455 | 0.598 |  |  |  |  |  |  |  |  |  |  |  |  |  |  | 
SK-LU-1 |  |  |  |  |  | 1.14 | 0.97 | 0.971 | 0.707 | 0.536 | 0.812 | 0.57 | 0.301 | 0.226 | 0.154 | 1.09 | 0.769 | 1.2 | 0.585 | 0.474
SK-MES-1 |  |  |  |  |  | 0.578 | 0.461 | 0.519 | 0.477 | 0.514 | 1.18 |  | 1.41 | 0.802 | 0.429 | 1.03 | 1.34 | 1.15 | 0.961 | 0.647
SW 900 | 0.741 | 0.587 | 0.679 | 0.467 | 0.835 |  |  |  |  |  |  |  |  |  |  |  |  |  |  | 
SW 1573 |  |  |  |  |  | 1.13 | 1.2 | 1.28 | 1.06 | 1.1 | 0.906 | 0.899 | 0.946 | 0.473 | 0.481 | 1.01 | 0.932 | 1.21 | 1.11 | 0.787
